Assay results: ChEMBL document CHEMBL5726462, “Substituted quinolines as modulators of sodium channels” (2017)
pIC50: −log10 of the molar value.

Assay: Electrophysiology Assays: Patch clamp electrophysiology was used to assess the efficacy and selectivity of sodium channel blockers in dorsal root ganglion neurons. Rat neurons were isolated from the dorsal root ganglions and maintained in culture for 2 to 10 days in the presence of NGF (50 ng/ml) (culture media consisted of NeurobasalA supplemented with B27, glutamine and antibiotics). Small diameter neurons (nociceptors, 8-12 μm in diameter) were visually identified and probed with fine tip glass electrodes connected to an amplifier (Axon Instruments). The voltage clamp mode was used to assess the compound's IC50 holding the cells at −60 mV. In addition, the current clamp mode was employed to test the efficacy of the compounds in blocking action potential generation in response to current injections. The results of these experiments contributed to the definition of the efficacy profile of the compounds.

Structure (SMILES) | pIC50
O=C(O)c1ccc(NC(=O)c2cc3ccccc3nc2Oc2ccc(F)cc2Cl)cn1 | 7.02
COc1cc(F)ccc1Oc1nc2ccccc2nc1C(=O)Nc1nnn[nH]1 | 5.66
Cc1cc(F)ccc1Oc1nc2ccccc2cc1C(=O)Nc1ccc(C(=O)O)cc1 | 6.50
O=C(O)c1ccc(NC(=O)c2cc3ccccc3nc2Oc2ccc(F)cc2F)cn1 | 6.59
NS(=O)(=O)c1cccc(NC(=O)c2cc3ccccc3nc2Oc2ccccc2OC(F)F)c1 | 7.62
O=C(O)c1ccc(NC(=O)c2cc3ccccc3nc2Oc2ccc(F)cc2F)cc1 | 6.56
O=C(O)c1ccc(NC(=O)c2cc3ccccc3nc2Oc2ccccc2OC(F)F)cc1 | 6.01
COc1ccc(Oc2nc3ccccc3cc2C(=O)Nc2ccc(C(=O)O)cc2)c(OC)c1 | 6.26
